Source: US11357786B2, “Synthetic disugar hydrocarbons as natural analogs to control microbial behaviors” (Syracuse University, priority 2014, dated 2022)

What was measured:
Type in all cases: cell-based, Pseudomonas aeruginosa
PAO1-GFP = assay: microbe, parasite or virus in culture
Procedure: A crystal violet (CV) assay was used to measure the amount of PAO1 biofilm formed after 24 h of bacterial inoculation. The fluorescence of green fluorescent proteins (GFP) expressed by PAO1-GFP was measured to directly quantify bacterial adhesion on polystyrene black 96 well plates with and without maltose derivatives after 2 h of bacterial inoculation. To evaluate the potential of maltose derivatives as both anti-biofilm and anti-adhesion agents, they were compared to a brominated furanone (BF8) known to inhibit biofilm formation, and two generic surfactants, sodium dodecyl sulfate (SDS) and tetra (ethylene glycol) monododecyl ether (C12EG4OH). […] P. aeruginosa strain PAO1-EGFP that constitutively producing green fluorescent protein was allowed to form biofilm on sterile steel coupons.
Overnight culture of PAO1-GFP was subcultured to an OD600 of 0.01 into the 95:5 M9+:Lb medium. Subculture was allowed to reach the OD600 of 0.1 in a rotary shaker at 250 rpm and 37° C. 200 μL of the subculture was then transferred to the wells of black microtiter plate with and without (control) maltose derivatives. This black 96 well plate was then incubated in a shaker at 37° C. for 2 h. After 2 h, bacterial culture from the plate was discarded and each well was washed once with saline water (0.85 w/v % aqueous NaCl solution). Fresh 95:5 M9+:Lb medium was added to the black 96 well plate and fluorescence of the surface adhered bacteria was measured by Synergy 2 multi-mode microplate reader with Gen5 data analysis software at an excitation wavelength of 500 nm and an emission wavelength of 540 nm. Background signal from 95:5 M9+:Lb medium was eliminated from all the samples.

PAO1 biofilm = assay: Crystal violet based static biofilm inhibition assay, DSHs in LB media (Examples 2 and 4); conditions: for Anti-biofilm activity (biofilm inhibition): concentration not given; for Inhibition of PAO1 biofilm in presence of pili peptide PAO(128-144)ox: agent 85 μM + pili peptide 85 μM; for Inhibition of PAO1 biofilm in presence of scrambled pili peptide: agent 85 μM + scrambled pili peptide 85 μM
In short: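 PAO1 subculture (OD600 ~0.1) was grown statically in LB at 37° C for 24 h with or without DSHs (screened at 160 μM). Surface-attached biofilm was then stained with 0.1% crystal violet, solubilised in 30% AcOH and read at 600 nm. Values are the mean of 4 wells.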

wild type PAO1 = assay: Swarming motility of wild type PAO1 on soft agar (antagonist assay); conditions: for Swarming of wild type PAO1: 110 μM in soft agar; for Effect on PAO1 swarming: concentration not given; for Concentration of activity reversal for swarming inhibition of PAO1 (transition concentration): soft agar
In short: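 Wild-type PAO1 culture (OD600 ~0.4–0.6, 3 μl) spotted on M8 swarm agar with 0.2% glucose, 0.5% casamino acids, 1 mM MgSO4 and 0.5% agar. Plates incubated 12 h at 37 °C then 12 h at room temperature; swarm area measured by cutting and weighing printed plate images.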

Question: For `CCCCCCCCCCCCOCCOCCOCCOCCO` [C12EG4OH, tetra (ethylene glycol) monododecyl ether, reference compound], which “Inhibition of PAO1-EGFP adhesion on polystyrene” value (PAO1-GFP; 85 μM, 2 h) is on record?
Answer: Its value is “about 40%”.

Question: And the “Anti-biofilm activity (biofilm inhibition)” value (PAO1 biofilm)?
Answer: Its value is “did not incur any bioactivity”.

Question: How did the inhibition at 85 µM (PAO1-GFP; Pseudomonas aeruginosa, PAO1, 2 h, read-out: Inhibition of PAO1-EGFP adhesion on polystyrene) turn out when `CCCCCCCCCCCCOS(=O)(=O)[O-].[Na+]` [SDS, sodium dodecyl sulfate, reference compound] was run?
Answer: The inhibition at 85 µM was ~40%.

Question: And the “Anti-biofilm activity (biofilm inhibition)” value (PAO1 biofilm)?
Answer: Its value is “did not incur any bioactivity”.

Question: Which “Swarming motility of wild type PAO1” value (wild type PAO1; 85 μM in soft agar, 24 h) does the source give for `CC(C)CCCC(C)CCCC(C)CCO[C@H]1O[C@H](CO)[C@@H](O[C@@H]2O[C@H](CO)[C@@H](O)[C@H](O)[C@H]2O)[C@H](O)[C@H]1O` (stereo partly drawn) [SFαC (13), saturated farnesyl-α-cellobioside] here?
Answer: The value was “inhibited the swarming motility of wild type PAO1”.

Question: What about the “Swarming of wild type PAO1” value (wild type PAO1; 24 h) of the same compound?
Answer: The value was “completely inhibited the swarming of wt PAO1”.

Question: And the “Effect on PAO1 swarming” value (wild type PAO1)?
Answer: Its value is “inhibitors for PAO1 swarming motility”.

Question: What about the “Inhibition of PAO1 biofilm” value (PAO1 biofilm; 85 μM, agent alone) of the same compound?
Answer: Its value is “about 70%”.

Question: What about the IC50 (PAO1 biofilm; Example 2, FIG. 18) of the same compound?
Answer: The IC50 was ~32.3 µM.

Question: What about the IC50 (PAO1 biofilm; Example 4, FIG. 30) of the same compound?
Answer: The IC50 was ~32 µM.

Question: And the “Inhibition of PAO1 biofilm in presence of pili peptide PAO(128-144)ox” value (PAO1 biofilm)?
Answer: The value was 30%.

Question: And the “Inhibition of PAO1 biofilm in presence of pili peptide PAO(128-144)ox” value (PAO1 biofilm; listed as 13: SFαC)?
Answer: Its value is “exhibited no inhibition of PA biofilm”.

Question: And the “Inhibition of PAO1 biofilm in presence of scrambled pili peptide” value (PAO1 biofilm)?
Answer: Its value is 65%.

Question: And the “Inhibition of PAO1 biofilm in presence of scrambled pili peptide” value (PAO1 biofilm; listed as 13: SFαC)?
Answer: Its value is “did not compromise the efficacy of the agent”.

Question: And the “Anti-biofilm activity (biofilm inhibition)” value (PAO1 biofilm)?
Answer: Its value is “potent PAO1 biofilm inhibitors”.

Question: With `CC(C)CCCC(C)CCCC(C)CCO[C@@H]1O[C@H](CO)[C@@H](O[C@@H]2O[C@H](CO)[C@@H](O)[C@H](O)[C@H]2O)[C@H](O)[C@H]1O` (stereo partly drawn) [SFβC (12), saturated famesyl-β-cellobioside] as the compound, how does the “Concentration exhibiting inhibition of PAO1 swarming” value (wild type PAO1) read?
Answer: The value was > 20 µM.

Question: And the “Concentration exhibiting promotion of PAO1 swarming” value (wild type PAO1)?
Answer: Its value is < 10 µM.

Question: And the “Swarm ring of wild type PAO1 as percent of PAO1 without DSHs” value (wild type PAO1; 20 μM)?
Answer: The value was ~5%.

Question: What about the “Swarming motility of wild type PAO1” value (wild type PAO1; 20 μM) of the same compound?
Answer: The value was “did inhibit the swarming activity of wild type PAO1”.

Question: And the “Swarm ring area of wild type PAO1” value (wild type PAO1; 20 μM, control 24 cm2)?
Answer: Its value is ~1.2 cm2.

Question: And the “Swarming motility of wild type PAO1” value (wild type PAO1; 20 μM, listed as 12)?
Answer: Its value is “stronger inhibition than rhamnolipids”.

Question: And the “Swarming motility of wild type PAO1” value (wild type PAO1; 85 μM in soft agar, 24 h)?
Answer: The value was “inhibited the swarming motility of wild type PAO1”.

Question: And the “Swarming of wild type PAO1” value (wild type PAO1; 24 h, listed as 12: SFbC)?
Answer: Its value is “inhabits the swarming of wt PAO1”.

Question: What about the “Swarming of wild type PAO1” value (wild type PAO1; 24 h, listed as 12: SFβC) of the same compound?
Answer: The value was “completely inhibited the swarming of wt PAO1”.

Question: And the “Effect on PAO1 swarming” value (wild type PAO1)?
Answer: Its value is “inhibitors for PAO1 swarming motility”.

Question: What about the “Concentration of activity reversal for swarming inhibition of PAO1 (transition concentration)” value (wild type PAO1) of the same compound?
Answer: The value was ~10 to 20 µM.

Question: And the “Concentration of activity reversal for swarming inhibition of PAO1 (transition concentration)” value (wild type PAO1; listed as 12)?
Answer: The value was 10 to 20 µM.

Question: What about the IC50 (PAO1 biofilm; Example 2, FIG. 18) of the same compound?
Answer: Its IC50 is 4.9 µM.

Question: And the IC50 (PAO1 biofilm; Example 4, FIG. 30)?
Answer: Its IC50 is ~9.9 µM.

Question: And the “Anti-biofilm activity (biofilm inhibition)” value (PAO1 biofilm)?
Answer: Its value is “potent PAO1 biofilm inhibitors”.

Question: How did the “Concentration at which tendrils were induced in PAO1” value (wild type PAO1) turn out when `CC(C)CCCC(C)CCCC(C)CCO[C@@H]1O[C@H](CO)[C@@H](O[C@H]2O[C@H](CO)[C@@H](O)[C@H](O)[C@H]2O)[C@H](O)[C@H]1O` (stereo partly drawn) [SFβM (14), saturated farnesyl-β-maltoside] was run?
Answer: The value was ~7.5 µM.

Question: What about the “Swarming motility of wild type PAO1” value (wild type PAO1; 20 μM) of the same compound?
Answer: Its value is “stronger inhibition than rhamnolipids”.

Question: What about the “Swarming motility of wild type PAO1” value (wild type PAO1; 85 μM in soft agar, 24 h) of the same compound?
Answer: The value was “inhibited the swarming motility of wild type PAO1”.

Question: And the “Swarming of wild type PAO1” value (wild type PAO1; 24 h)?
Answer: The value was “completely inhibited the swarming of wt PAO1”.

Question: What about the “Concentration of activity reversal for swarming inhibition of PAO1 (transition concentration)” value (wild type PAO1) of the same compound?
Answer: The value was ~7.5 µM.

Question: What about the “Concentration of activity reversal for swarming inhibition of PAO1 (transition concentration)” value (wild type PAO1; listed as 14) of the same compound?
Answer: Its value is 7.5 µM.

Question: What about the IC50 (PAO1 biofilm; Example 2, FIG. 18) of the same compound?
Answer: The IC50 was ~97.2 µM.

Question: What about the IC50 (PAO1 biofilm; Example 4, FIG. 30) of the same compound?
Answer: Its IC50 is ~102 µM.

Question: What about the “Anti-biofilm activity (biofilm inhibition)” value (PAO1 biofilm) of the same compound?
Answer: Its value is “potent PAO1 biofilm inhibitors”.
